# Values of other authors as cited in US20060147533A1, “Antimicrobial biomaterial for blood bags” (priority 2004, published 2006).
# Conditions: humans; recoveries reported following ingestion of higher doses
structure (smiles),measurement,value
O=[N+]([O-])[O-].[Ag+] [silver nitrate],estimated fatal dose,10 grams
